pIC50: −log10 of the molar value.
Tests used:
[1] = target: RAC-alpha serine/threonine-protein kinase (Homo sapiens, UniProt P31749); assay: Inhibitory concentration against Akt1 kinase
[2] = Inhibitory concentration against Akt2 kinase; parameters: species or system Homo sapiens
[3] = target: RAC-gamma serine/threonine-protein kinase (Homo sapiens, UniProt Q9Y243); assay: Inhibitory concentration against Akt3 kinase
RAC-gamma serine/threonine-protein kinase, sequence (Q9Y243 whole entry, looked up): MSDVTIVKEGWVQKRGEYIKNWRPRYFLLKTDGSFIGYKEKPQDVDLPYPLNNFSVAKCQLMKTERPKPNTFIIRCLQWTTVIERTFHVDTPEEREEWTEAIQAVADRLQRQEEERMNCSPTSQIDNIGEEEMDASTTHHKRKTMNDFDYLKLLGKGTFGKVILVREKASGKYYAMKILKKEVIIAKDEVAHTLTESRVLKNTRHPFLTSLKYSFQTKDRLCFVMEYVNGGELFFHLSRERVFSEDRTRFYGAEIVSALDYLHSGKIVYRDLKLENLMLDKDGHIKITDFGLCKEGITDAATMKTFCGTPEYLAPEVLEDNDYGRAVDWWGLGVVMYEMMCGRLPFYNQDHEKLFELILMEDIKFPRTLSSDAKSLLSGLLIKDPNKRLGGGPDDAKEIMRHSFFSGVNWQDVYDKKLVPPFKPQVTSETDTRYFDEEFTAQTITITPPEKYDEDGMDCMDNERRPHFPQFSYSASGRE

RAC-alpha serine/threonine-protein kinase, sequence (P31749 whole entry): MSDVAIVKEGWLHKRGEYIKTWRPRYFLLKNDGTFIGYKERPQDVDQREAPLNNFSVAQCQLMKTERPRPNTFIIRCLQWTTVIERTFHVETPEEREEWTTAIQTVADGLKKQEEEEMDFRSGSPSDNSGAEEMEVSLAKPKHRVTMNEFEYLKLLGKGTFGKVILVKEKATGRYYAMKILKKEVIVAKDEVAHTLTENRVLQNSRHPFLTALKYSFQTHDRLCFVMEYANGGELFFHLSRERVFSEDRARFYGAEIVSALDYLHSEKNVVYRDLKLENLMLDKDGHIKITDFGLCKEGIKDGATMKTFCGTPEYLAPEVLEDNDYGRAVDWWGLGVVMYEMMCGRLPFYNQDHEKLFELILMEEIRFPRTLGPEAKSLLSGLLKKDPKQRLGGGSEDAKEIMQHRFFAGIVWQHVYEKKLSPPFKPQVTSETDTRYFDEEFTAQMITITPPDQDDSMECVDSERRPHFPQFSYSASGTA

| Structure (SMILES) | pIC50 [1] | pIC50 [2] | pIC50 [3] |
| --- | --- | --- | --- |
| Oc1nc2ccccc2n1C1CCN(Cc2ccc(-c3cc4ccccc4nc3-c3ccccc3)cc2)CC1 | 5.50 | 4.47 | < 4.30 |
| c1ccc(-c2cc(-c3nn[nH]n3)cnc2-c2ccc(CN3CCC(n4cnc5ccccc54)CC3)cc2)cc1 | 5.37 | 5.71 | < 4.30 |
| c1ccc(-c2cc(-c3nn[nH]n3)cnc2-c2ccc(CN3CCC(c4nc5ccccc5[nH]4)CC3)cc2)cc1 | 5.48 | 5.82 | < 4.30 |
| Fc1ccc2[nH]c(C3CCN(Cc4ccc(-c5ncc(-c6nn[nH]n6)cc5-c5ccccc5)cc4)CC3)nc2c1 | 6.62 | 5.76 | < 4.30 |
| Cc1ccc2[nH]c(C3CCN(Cc4ccc(-c5ncc(C#N)cc5-c5ccccc5)cc4)CC3)nc2c1 | 5.54 | 4.94 | < 4.30 |
| Cn1nnnc1-c1cnc(-c2ccc(CN3CCC(n4c(=O)[nH]c5ccccc54)CC3)cc2)c(-c2ccccc2)c1 | 5.75 | 6.21 |  |
| N#Cc1cnc(-c2ccc(CN3CCC(n4c(=O)[nH]c5ccccc54)CC3)cc2)c(-c2ccccc2)c1 | 6.12 | 5.50 | < 4.30 |
| O=c1[nH]c2ccccc2n1C1CCN(Cc2ccc(-c3ncc(-c4nnn[nH]4)cc3-c3ccccc3)cc2)CC1 | 6.56 | 6.80 | < 4.30 |
| Oc1nc2ccccc2n1C1CCN(Cc2ccc(-c3nc4ccccc4cc3-c3ccccc3)cc2)CC1 | 6.44 | 5.92 | < 4.30 |
| N#Cc1cnc(-c2ccc(CNCc3ccc(-c4csnn4)cc3)cc2)c(-c2ccccc2)c1 | 5.89 | 5.32 | < 4.30 |
| N#Cc1cnc(-c2ccc(CN3CCC(n4cnc5ccccc54)CC3)cc2)c(-c2ccccc2)c1 | 5.36 | 4.89 | < 4.30 |
| Cc1ccc2[nH]c(C3CCN(Cc4ccc(-c5ncc(-c6nn[nH]n6)cc5-c5ccccc5)cc4)CC3)nc2c1 | 6.12 | 6.37 | < 4.30 |
| N#Cc1cnc(-c2ccc(CN3CCC(c4nc5cc(F)ccc5[nH]4)CC3)cc2)c(-c2ccccc2)c1 | 6.06 | 5.18 | < 4.30 |
| N#Cc1cnc(-c2ccc(CN3CCC(c4nc5ccccc5[nH]4)CC3)cc2)c(-c2ccccc2)c1 | 5.83 | 5.06 | < 4.30 |
| Cc1nc2ccccc2n1C1CCN(Cc2ccc(-c3ncc(-c4nn[nH]n4)cc3-c3ccccc3)cc2)CC1 | 5.16 | 5.56 | < 4.30 |
| c1ccc(-c2cc(-c3nn[nH]n3)cnc2-c2ccc(CNCc3ccc(-c4csnn4)cc3)cc2)cc1 | 6.75 | 6.61 | < 4.30 |
| Cc1nc2ccccc2n1C1CCN(Cc2ccc(-c3ncc(C#N)cc3-c3ccccc3)cc2)CC1 | 5.13 | 4.74 | < 4.30 |
